Measurements published in patent publication US20060069132A1, “Azolecarboxamide herbicides” (priority 2004, published 2006).

Assays:
[1] = system: downy bromegrass; test: Test C postemergence herbicide test; assay type: in vivo, Bromus tectorum
Method in brief: (§1)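 Greenhouse test with a 12–14 day hold after application and visual comparison with controls. Emerged plants were 1- to 4-leaf stage (2–18 cm) when sprayed postemergence, and the paddy barnyardgrass was at 2 leaves under flooded conditions. 100 = complete control.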

[2] = system: winter barley; test: Test C postemergence herbicide test; assay type: in vivo, Hordeum vulgare
Method in brief: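 Postemergence sprays applied to plants 2 to 18 cm tall (1- to 4-leaf stage); paddy species grown to 2-leaf stage under flooding. After 12 to 14 days in greenhouse, visual rating versus untreated controls on 0–100 scale (0 no effect, 100 complete control).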

[3] = system: prickly sida; test: Test E pre-/postemergence herbicide test; assay type: in vivo, Sida spinosa; conditions: Preemergence
Method in brief: (§2)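 Visual 0–100 rating vs untreated controls (0 = no effect, 100 = complete control), 12–14 d after treatment in greenhouse. Pre- and postemergence (2–18 cm, 1- to 4-leaf) applications; compounds in non-phytotoxic solvent with surfactant.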

[4] = system: itchgrass; test: Test E pre-/postemergence herbicide test; assay type: in vivo, Rottboellia cochinchinensis; conditions: Preemergence
Method in brief: as §2

[5] = system: wild oat; test: Test C postemergence herbicide test; assay type: in vivo, Avenafatua
Method in brief: as §1

[6] = system: canarygrass; test: Test C postemergence herbicide test; assay type: in vivo, Phalaris minor
Method in brief: as §1

[7] = system: pitted morningglory; test: Test E pre-/postemergence herbicide test; assay type: in vivo, Ipomoea lacunosa; conditions: Preemergence
Method in brief: as §2

[8] = system: large crabgrass; test: Test E pre-/postemergence herbicide test; assay type: in vivo, Digitaria sanguinalis; conditions: Preemergence
Method in brief: as §2

[9] = system: common mallow; test: Test E pre-/postemergence herbicide test; assay type: in vivo, Malva sylvestris; conditions: Preemergence
Method in brief: as §2

[10] = system: annual bluegrass; test: Test E pre-/postemergence herbicide test; assay type: in vivo, Poa annua; conditions: Preemergence
Method in brief: as §2

[11] = system: downy bromegrass; test: Test E pre-/postemergence herbicide test; assay type: in vivo, Bromus tectorum; conditions: Preemergence
Method in brief: as §2

[12] = system: goosegrass; test: Test E pre-/postemergence herbicide test; assay type: in vivo, Eleusine indica; conditions: Preemergence
Method in brief: as §2

[13] = system: green foxtail; test: Test C postemergence herbicide test; assay type: in vivo, Setaria viridis
Method in brief: as §1

[14] = system: dallisgrass; test: Test E pre-/postemergence herbicide test; assay type: in vivo, Paspalum dilatatum; conditions: Preemergence
Method in brief: as §2

[15] = Postemergence, 250 g ai/ha, scale 0 to 100, 0 no effect, 100 complete control
[16] = Postemergence, 500 g ai/ha, scale 0 to 100, 0 no effect, 100 complete control
[17] = postemergence, 125 g ai/ha, scale 0 to 100
[18] = postemergence, 62 g ai/ha, scale 0 to 100
[19] = Postemergence, 125 g ai/ha, scale 0 to 100, 0 no effect, 100 complete control
[20] = postemergence, 62 g ai/ha, scale 0 to 100 (0 no effect, 100 complete control)
[21] = 250 g ai/ha, scale 0 (no effect) to 100 (complete control)
[22] = 500 g ai/ha, scale 0 (no effect) to 100 (complete control)
[23] = postemergence, 31 g ai/ha, scale 0 to 100

CCNC(=O)c1cccc(NC(=O)c2nn(C(C)(C)C)nc2C)c1 [Compound 392]
65: Plant response rating, Canarygrass [6, 16] | Plant response rating, Foxtail, Green [13, 15]
50: Plant response rating, Itchgrass ([4]; 62 g ai/ha, scale 0 to 100) | Plant response rating, Canarygrass [6, 15]
70: Plant response rating, Goosegrass ([12]; 125 g ai/ha, scale 0 to 100) | Plant response rating, Foxtail, Green [13, 16]
20: Plant response rating, Bromegrass, Downy ([11]; 125 g ai/ha, scale 0 to 100) | Plant response rating, Goosegrass ([12]; 62 g ai/ha, scale 0 to 100)
10: Plant response rating, Morningglory ([7]; 62 g ai/ha, scale 0 to 100) | Plant response rating, Mallow ([9]; 62 g ai/ha, scale 0 to 100) | Plant response rating, Bluegrass ([10]; 62 g ai/ha, scale 0 to 100) | Plant response rating, Bromegrass, Downy ([11]; 62 g ai/ha, scale 0 to 100) | Plant response rating, Dallisgrass ([14]; 62 g ai/ha, scale 0 to 100)
95: Plant response rating, Crabgrass, Large ([8]; 125 g ai/ha, scale 0 to 100) | Plant response rating, Crabgrass, Large [8, 21] | Plant response rating, Crabgrass, Large [8, 22] | Plant response rating, Mallow [9, 21] | Plant response rating, Mallow [9, 22] | Plant response rating, Goosegrass [12, 22]
90: Plant response rating, Itchgrass [4, 22]
35: Plant response rating, Bromegrass, Downy [1, 18] | Barley, Winter plant response rating ([2]; Postemergence, 500 g ai/ha, scale 0 to 100) | Plant response rating, Barley, Winter [2, 19] | Plant response rating, Barley, Winter [2, 15] | Plant response rating, Barley, Winter [2, 20]
55: Plant response rating, Bromegrass, Downy [1, 15] | Plant response rating, Bromegrass, Downy [1, 17]
100: Plant response rating, Prickly Sida [3, 22] | Plant response rating, Bluegrass [10, 22] | Plant response rating, Dallisgrass [14, 22]
30: Plant response rating, Oat, Wild [5, 18] | Plant response rating, Bromegrass, Downy [11, 21] | Plant response rating, Bromegrass, Downy [11, 22]
85: Plant response rating, Itchgrass ([4]; 125 g ai/ha, scale 0 to 100) | Plant response rating, Itchgrass [4, 21] | Plant response rating, Goosegrass [12, 21]
75: Plant response rating, Prickly Sida [3, 21] | Plant response rating, Morningglory [7, 22] | Plant response rating, Crabgrass, Large ([8]; 62 g ai/ha, scale 0 to 100) | Plant response rating, Dallisgrass [14, 21]
80: Plant response rating, Mallow ([9]; 125 g ai/ha, scale 0 to 100) | Plant response rating, Bluegrass ([10]; 125 g ai/ha, scale 0 to 100) | Plant response rating, Bluegrass [10, 21]
60: Plant response rating, Bromegrass, Downy [1, 16] | Plant response rating, Oat, Wild [5, 16] | Plant response rating, Foxtail, Green [13, 17] | Plant response rating, Foxtail, Green [13, 18] | Plant response rating, Dallisgrass ([14]; 125 g ai/ha, scale 0 to 100)
45: Plant response rating, Canarygrass [6, 17]
40: Plant response rating, Oat, Wild [5, 17] | Plant response rating, Canarygrass [6, 18] | Plant response rating, Morningglory ([7]; 125 g ai/ha, scale 0 to 100) | Plant response rating, Morningglory [7, 21]

Cc1nn(C(C)(C)C)nc1C(=O)Nc1cccc(C(=O)N2CC=CC2)c1 [Compound 393]
70: Plant response rating, Prickly Sida ([3]; 125 g ai/ha, scale 0 to 100)
35: Plant response rating, Barley, Winter [2, 19] | Plant response rating, Barley, Winter [2, 15] | Plant response rating, Barley, Winter [2, 20]
85: Plant response rating, Dallisgrass [14, 22]
80: Plant response rating, Crabgrass, Large ([8]; 125 g ai/ha, scale 0 to 100) | Plant response rating, Bromegrass, Downy [11, 22]
75: Plant response rating, Prickly Sida [3, 21] | Plant response rating, Bluegrass [10, 21] | Plant response rating, Dallisgrass [14, 21]
40: Plant response rating, Bromegrass, Downy [1, 23] | Plant response rating, Bromegrass, Downy [1, 18]
60: Plant response rating, Itchgrass [4, 22] | Plant response rating, Canarygrass [6, 23] | Plant response rating, Morningglory ([7]; 125 g ai/ha, scale 0 to 100) | Plant response rating, Mallow ([9]; 125 g ai/ha, scale 0 to 100) | Plant response rating, Bromegrass, Downy [11, 21] | Plant response rating, Foxtail, Green [13, 18]
45: Plant response rating, Bromegrass, Downy [1, 17]
50: Plant response rating, Goosegrass ([12]; 125 g ai/ha, scale 0 to 100)
65: Plant response rating, Oat, Wild [5, 17] | Plant response rating, Canarygrass [6, 15] | Plant response rating, Canarygrass [6, 17] | Plant response rating, Canarygrass [6, 18] | Plant response rating, Foxtail, Green [13, 15] | Plant response rating, Foxtail, Green [13, 17]
95: Plant response rating, Morningglory [7, 21] | Plant response rating, Morningglory [7, 22] | Plant response rating, Crabgrass, Large [8, 21] | Plant response rating, Mallow [9, 21] | Plant response rating, Mallow [9, 22] | Plant response rating, Bluegrass [10, 22] | Plant response rating, Goosegrass [12, 21] | Plant response rating, Goosegrass [12, 22]
100: Plant response rating, Prickly Sida [3, 22] | Plant response rating, Crabgrass, Large [8, 22]
55: Plant response rating, Bromegrass, Downy [1, 15] | Plant response rating, Oat, Wild [5, 18]
10: Plant response rating, Itchgrass ([4]; 125 g ai/ha, scale 0 to 100) | Plant response rating, Crabgrass, Large ([8]; 62 g ai/ha, scale 0 to 100) | Plant response rating, Mallow ([9]; 62 g ai/ha, scale 0 to 100) | Plant response rating, Bluegrass ([10]; 62 g ai/ha, scale 0 to 100) | Plant response rating, Bromegrass, Downy ([11]; 125 g ai/ha, scale 0 to 100) | Plant response rating, Goosegrass ([12]; 62 g ai/ha, scale 0 to 100) | Plant response rating, Dallisgrass ([14]; 125 g ai/ha, scale 0 to 100)
30: Plant response rating, Prickly Sida ([3]; 62 g ai/ha, scale 0 to 100) | Plant response rating, Itchgrass [4, 21] | Plant response rating, Bluegrass ([10]; 125 g ai/ha, scale 0 to 100)
0: Plant response rating, Itchgrass ([4]; 62 g ai/ha, scale 0 to 100) | Plant response rating, Morningglory ([7]; 62 g ai/ha, scale 0 to 100) | Plant response rating, Bromegrass, Downy ([11]; 62 g ai/ha, scale 0 to 100) | Plant response rating, Dallisgrass ([14]; 62 g ai/ha, scale 0 to 100)
20: Plant response rating, Barley, Winter [2, 23]
